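Tested at 5 concentrations; 48 h exposure; 96-well plates; endpoints linearly interpolated, else capped at highest concentration. The concentration for 50% growth inhibition is given as GI50.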 Active and inactive are the calls of the source. No stated cut-off is given here; in the data, active = GI50 up to about 1.1 µM and inactive = higher.
Experiments:
Experiment in all cases: NCI tumour cell line growth inhibition, 48 h
ACHN = test system: ACHN
HCC 2998 = test system: HCC 2998
HCT-116 = test system: HCT-116
IGROV-1 = test system: IGROV-1
K562 = test system: K562
KM12 = test system: KM12
M14 = test system: M14
MCF7 = test system: MCF7
MDA-N = test system: MDA-N
NCI-H460 = test system: NCI-H460
NCI/ADR-RES = test system: NCI/ADR-RES
OVCAR-8 = test system: OVCAR-8
RPMI-8226 = test system: RPMI-8226
SF-268 = test system: SF-268
SW-620 = test system: SW-620
TK-10 = test system: TK-10
UO-31 = test system: UO-31
A549 = test system: A549
SK-MEL-2 = test system: SK-MEL-2

Compound	GI50 (ACHN)	GI50 (HCC 2998)	GI50 (HCT-116)	GI50 (IGROV-1)	GI50 (K562)	GI50 (KM12)	GI50 (M14)	GI50 (MCF7)	GI50 (MDA-N)	GI50 (NCI-H460)	GI50 (NCI/ADR-RES)	GI50 (OVCAR-8)	GI50 (RPMI-8226)	GI50 (SF-268)	GI50 (SW-620)	GI50 (TK-10)	GI50 (UO-31)	GI50 (A549)	GI50 (SK-MEL-2)
CC[N+]1(C)CCC(O)(c2ccc(Cl)cc2)C(C(=O)c2ccc(Cl)cc2)C1 (stereo unspecified)	19 µM (inactive)	19.9 µM (inactive)	10.3 µM (inactive)	18.5 µM (inactive)	4.09 µM (inactive)	16.9 µM (inactive)	17.4 µM (inactive)	1.1 µM (active)	19.1 µM (inactive)	27.5 µM (inactive)	24.2 µM (inactive)	46.6 µM (inactive)	1.73 µM (inactive)	24.5 µM (inactive)	1.82 µM (inactive)	17.7 µM (inactive)	20.1 µM (inactive)		
CN1C(NN)=NS(=O)(=O)c2ccccc21	> 100 µM (inactive)	> 100 µM (inactive)	> 100 µM (inactive)	> 100 µM (inactive)	> 100 µM (inactive)	> 100 µM (inactive)	> 100 µM (inactive)	> 100 µM (inactive)	> 100 µM (inactive)	> 100 µM (inactive)	> 100 µM (inactive)	> 100 µM (inactive)		> 100 µM (inactive)	> 100 µM (inactive)	> 100 µM (inactive)	> 100 µM (inactive)	> 100 µM (inactive)	> 100 µM (inactive)
[O-][S+](Nc1ccccc1)c1ccc(-c2ccccc2)cc1 (stereo unspecified)	> 100 µM (inactive)	> 100 µM (inactive)	> 100 µM (inactive)	> 100 µM (inactive)	> 100 µM (inactive)	58.6 µM (inactive)		> 100 µM (inactive)	> 100 µM (inactive)	> 100 µM (inactive)	> 100 µM (inactive)	45.8 µM (inactive)	> 100 µM (inactive)	> 100 µM (inactive)	> 100 µM (inactive)	> 100 µM (inactive)	> 100 µM (inactive)	> 100 µM (inactive)	
CC(CO)CCNc1ncnc2c1ncn2CCC#N (stereo unspecified)	> 100 µM (inactive)	> 100 µM (inactive)	> 100 µM (inactive)	> 100 µM (inactive)	> 100 µM (inactive)	> 100 µM (inactive)	> 100 µM (inactive)	> 100 µM (inactive)	> 100 µM (inactive)	> 100 µM (inactive)	> 100 µM (inactive)	> 100 µM (inactive)	> 100 µM (inactive)	> 100 µM (inactive)	> 100 µM (inactive)	> 100 µM (inactive)	> 100 µM (inactive)	> 100 µM (inactive)	
O=C(CC(=O)N(C(=O)c1ccccc1)c1ccc(Cl)cc1)N/N=C\c1cc(/N=N/c2ccccc2Cl)ccc1O	> 100 µM (inactive)	> 100 µM (inactive)	75 µM (inactive)	> 100 µM (inactive)	17.3 µM (inactive)	26.3 µM (inactive)	> 100 µM (inactive)	> 100 µM (inactive)	> 100 µM (inactive)	> 100 µM (inactive)	> 10 µM (inactive)	> 100 µM (inactive)	68.2 µM (inactive)	47.1 µM (inactive)	> 100 µM (inactive)	27.2 µM (inactive)	45.6 µM (inactive)	> 100 µM (inactive)	
COC(=O)CCC(=O)c1ccc2c(c1)CC1(C2)Cc2ccc3c(c2C1)CCCC3=O (stereo unspecified)	21.1 µM (inactive)	38.3 µM (inactive)	> 34 µM (inactive)	21.9 µM (inactive)	2.88 µM (inactive)	14.7 µM (inactive)	9.1 µM (inactive)	12.2 µM (inactive)	4.85 µM (inactive)	25.2 µM (inactive)	29 µM (inactive)	26.7 µM (inactive)		33.8 µM (inactive)	20.7 µM (inactive)	41 µM (inactive)	18.2 µM (inactive)	> 57 µM (inactive)	7.31 µM (inactive)

— ChEMBL document CHEMBL1201862, “PubChem BioAssay data set” (2004)
